Measured values published in US20250215029A1 (Recludix Pharma, Inc., priority 2022, published 2025).
Read-outs that look alike come from different tables or passages of the source.

Columns and labels:
[1] = molecular target: T1, Recombinant STAT3 protein (STAT3 (G127-I722)) (Homo sapiens, UniProt P40763); experiment: STAT3 Fluorescence Polarization (FP) Assay; type: binding; settings: probe 5-FAM-GpYLPQTV-NH2 2 nM, 45-minute incubation
T1 construct: Recombinant STAT3 protein (STAT3 (G127-I722))
T1 sequence (P40763 127-722): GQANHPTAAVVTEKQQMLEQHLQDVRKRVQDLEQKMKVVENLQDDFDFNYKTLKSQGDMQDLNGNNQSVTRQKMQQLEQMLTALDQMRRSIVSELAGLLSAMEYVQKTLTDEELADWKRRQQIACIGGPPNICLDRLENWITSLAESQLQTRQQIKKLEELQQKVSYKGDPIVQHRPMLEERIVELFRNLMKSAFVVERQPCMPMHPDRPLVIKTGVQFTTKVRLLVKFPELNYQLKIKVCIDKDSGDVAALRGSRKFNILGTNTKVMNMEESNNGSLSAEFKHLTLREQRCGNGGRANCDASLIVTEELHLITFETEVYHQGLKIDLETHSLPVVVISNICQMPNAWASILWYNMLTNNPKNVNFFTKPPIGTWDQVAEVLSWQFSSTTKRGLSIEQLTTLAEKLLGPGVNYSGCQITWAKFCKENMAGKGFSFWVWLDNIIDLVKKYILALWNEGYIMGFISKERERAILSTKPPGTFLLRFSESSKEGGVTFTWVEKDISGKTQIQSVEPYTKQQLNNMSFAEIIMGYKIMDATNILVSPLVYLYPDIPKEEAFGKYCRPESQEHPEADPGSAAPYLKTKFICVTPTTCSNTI
Outline: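 Displacement of a fluorescent phosphotyrosine peptide (5-FAM-GpYLPQTV-NH2, 2 nM) from 25 nM recombinant STAT3 G127-I722 was monitored by FP after 45 min at room temperature.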

[2] = molecular target: T2, Recombinant STAT6 protein (STAT6 (W123-T658)) (Homo sapiens, UniProt P42226); experiment: STAT6 Fluorescence Polarization (FP) Assay; type: binding; settings: 45-minute incubation
T2 construct: Recombinant STAT6 protein (STAT6 (W123-T658))
T2 sequence (P42226 123-658): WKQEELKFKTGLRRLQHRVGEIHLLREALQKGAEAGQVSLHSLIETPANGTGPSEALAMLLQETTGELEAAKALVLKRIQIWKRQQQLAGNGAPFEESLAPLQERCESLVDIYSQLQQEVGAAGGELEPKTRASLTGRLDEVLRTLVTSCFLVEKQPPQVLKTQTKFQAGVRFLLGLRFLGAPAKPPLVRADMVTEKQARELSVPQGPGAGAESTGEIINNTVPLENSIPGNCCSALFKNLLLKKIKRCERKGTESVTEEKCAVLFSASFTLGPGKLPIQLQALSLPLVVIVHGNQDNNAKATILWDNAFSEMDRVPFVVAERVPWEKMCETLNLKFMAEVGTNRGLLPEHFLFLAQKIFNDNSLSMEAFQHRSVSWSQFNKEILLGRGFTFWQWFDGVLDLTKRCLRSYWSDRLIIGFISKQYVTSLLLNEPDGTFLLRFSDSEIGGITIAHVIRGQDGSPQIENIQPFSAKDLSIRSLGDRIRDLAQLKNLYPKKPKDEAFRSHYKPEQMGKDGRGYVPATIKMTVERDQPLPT
Outline: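 Fluorescence polarization (mP) read-out: 250 nM STAT6 (W123-T658) plus 2 nM 5-FAM phosphotyrosine peptide, 45 min, room temperature, 1% DMSO. IC50 by nonlinear fit of mP against log compound concentration.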

[3] = STAT3 (G127-I722) 25 nM, read-out: STAT3 (FP assay IC50 class)
[4] = STAT6 (W123-T658) 250 nM, probe 5-FAM-Ap[…]-NH2 2 nM, read-out: STAT6 (FP assay IC50 class)
[5] = STAT3 25 nM, read-out: STAT3 (FP assay IC50)
[6] = STAT6 250 nM, probe 5-FAM-Ap[…]-NH2 2 nM, read-out: STAT6 (FP assay IC50)

Row | IC50 [1, 3] | IC50 [2, 4] | Compound | other results
1 | 1000 to 10000 nM | 3000 to 30000 nM | O=C(N[C@H]1CCC[C@H]2CC[C@@H](C(=O)N3CC(C4=CCCOC4)C3)N2C1=O)c1cc2cc(CP(=O)(O)O)ccc2s1 [Compound 672, ((2-(((3S,6S,9aS)-3-(3-(5,6-dihydro-2H-pyran-3-yl)azetidine-1-carbonyl)-5-oxooctahydro-1H-pyrrolo[1,2-a]azepin-6-yl)carbamoyl)benzo [b]thiophen-5-yl)methyl) phosphonic acid] | 
2 | < 100 nM | 3000 to 30000 nM | O=C(N[C@H]1CCCC[C@H]2CC[C@@H](C(=O)NCc3cnc4[nH]cnc4c3)N2C1=O)c1cc2cc(C(F)P(=O)(O)O)ccc2s1 (stereo partly drawn) [Compound 521, ((2-(((3S,6S,10aS)-3-(((3H-imidazo[4,5-b]pyridin-6-yl)methyl)carbamoyl)-5-oxodecahydropyrrolo[1,2-a]azocin-6-yl)carbamoyl)benzo[b]thiophen-5-yl)fluoromethyl)phosphonic acid] | 
3 | < 100 nM | 3000 to 30000 nM | COC1CN(c2ccncc2C2CN(C(=O)[C@@H]3CC[C@@H]4C[C@H](C)C[C@H](NC(=O)c5cc6cc(CP(=O)(O)O)ccc6s5)C(=O)N43)C2)C1 [Compound 933, ((2-(((3S,6S,8R,9aR)-3-(3-(4-(3-methoxyazetidin-1-yl)pyridin-3-yl)azetidine-1-carbonyl)-8-methyl-5-oxooctahydro-1H-pyrrolo[1,2-a]azepin-6-yl)carbamoyl)benzo [b]thiophen-5-yl)methyl) phosphonic acid] | 
4 | 1000 to 10000 nM | 3000 to 30000 nM | COc1ccnc(C(F)F)c1C1CN(C(=O)[C@@H]2CC[C@@H]3CCC[C@H](NC(=O)c4cc5cc(CP(=O)(O)O)ccc5s4)C(=O)N32)C1 [Compound 594, ((2-(((3S,6S,9aS)-3-(3-(2-(difluoromethyl)-4-methoxypyridin-3-yl)azetidine-1-carbonyl)-5-oxooctahydro-1H-pyrrolo[1,2-a]azepin-6-yl)carbamoyl)benzo [b]thiophen-5-yl)methyl) phosphonic acid] | 
5 |  |  | O=C(N[C@H]1CCCC[C@H]2CC[C@@H](C(=O)N3CC4(CNS(=O)(=O)C4)C3)N2C1=O)c1cc2cc(C(F)(F)P(=O)(O)O)ccc2s1 [Compound 71, ((2-(((3S,6S,10aS)-3-(6,6-dioxido-6-thia-2,7-diazaspiro[3.4]octane-2-carbonyl)-5-oxodecahydropyrrolo [1,2-a]azocin-6-yl)carbamoyl)benzo[b]thiophen-5-yl)difluoromethyl) phosphonic acid] | IC50 [1, 5]: 100 to 1000 nM; IC50 [2, 6]: 300 to 3000 nM
6 | 100 to 1000 nM | 3000 to 30000 nM | CN(C)c1nccc(C2CN(C(=O)[C@@H]3CC[C@@H]4CCC[C@H](NC(=O)c5cc6cc([C@@H](F)P(=O)(O)O)ccc6s5)C(=O)N43)C2)n1 (single isomer, unassigned) [Compound 710] | 
7 | 1000 to 10000 nM |  | N#CC1C(c2ccccc2)CN(C(=O)[C@@H]2CC[C@@H]3CCC[C@H](NC(=O)c4cc5cc([C@@H](F)P(=O)(O)O)ccc5s4)C(=O)N32)C12CC2 (stereo in doubt) [Compound 921, ((S)-(2-(((3S,6S,9aS)-3-((6R,7S)-7-cyano-6-phenyl-4-azaspiro[2.4]heptane-4-carbonyl)-5-oxooctahydro-1H-pyrrolo[1,2-a]azepin-6-yl)carbamoyl)benzo [b]thiophen-5-yl)fluoromethyl) phosphonic acid] | IC50 ([2]; STAT6 (W123-T658) 250 nM, probe 5-FAM-ApYKPFQDLI-NH2 2 nM, read-out: STAT6 (FP assay IC50 class)): ≤ 300 nM
8 | 100 to 1000 nM | 3000 to 30000 nM | COc1nn(C)cc1C1CN(C(=O)[C@@H]2CC[C@@H]3CCC[C@H](NC(=O)c4cc5cc(C(F)P(=O)(O)O)ccc5s4)C(=O)N32)C1 (stereo partly drawn) [Compound 714, (fluoro(2-(((3S,6S,9aS)-3-(3-(3-methoxy-1-methyl-1H-pyrazol-4-yl)azetidine-1-carbonyl)-5-oxooctahydro-1H-pyrrolo[1,2-a]azepin-6-yl)carbamoyl)benzo [b]thiophen-5-yl)methyl) phosphonic acid] | 
9 | < 100 nM | 3000 to 30000 nM | O=C(N[C@H]1CCC[C@H]2CC[C@@H](C(=O)N3CC(c4cnccc4F)C3)N2C1=O)c1cc2cc(CP(=O)(O)O)ccc2s1 [Compound 514, ((2-(((3S,6S,9aS)-3-(3-(4-fluoropyridin-3-yl)azetidine-1-carbonyl)-5-oxooctahydro-1H-pyrrolo[1,2-a]azepin-6-yl)carbamoyl)benzo[b]thiophen-5-yl)methyl)phosphonic acid] | 
10 | 100 to 1000 nM | 300 to 3000 nM | N#CC1CN(C(=O)[C@@H]2CC[C@@H]3CCC[C@H](NC(=O)c4cc5cc(C(F)(F)P(=O)(O)O)ccc5s4)C(=O)N32)C1 [Compound 780, ((2-(((3S,6S,9aS)-3-(3-cyanoazetidine-1-carbonyl)-5-oxooctahydro-1H-pyrrolo[1,2-a]azepin-6-yl)carbamoyl)benzo [b]thiophen-5-yl)difluoromethyl) phosphonic acid] | 
11 |  |  | N#Cc1[nH]nc2ccc(NC(=O)[C@@H]3CC[C@@H]4CCCC[C@H](NC(=O)c5cc6cc(C(F)(F)P(=O)(O)O)ccc6s5)C(=O)N43)cc12 [Compound 52, ((2-(((3S,6S,10aS)-3-((3-cyano-2H-indazol-5-yl)carbamoyl)-5-oxodecahydropyrrolo [1,2-a]azocin-6-yl)carbamoyl)benzo[b]thiophen-5-yl)difluoromethyl) phosphonic acid] | IC50 [1, 5]: 1000 to 10000 nM; IC50 [2, 6]: 300 to 3000 nM
12 | 1000 to 10000 nM | 300 to 3000 nM | O=C(N[C@H]1CCCC[C@H]2CC[C@@H](C(=O)N[C@@H]3CCN(C(=O)OC4CC4)C3)N2C1=O)c1cc2cc(C(F)P(=O)(O)O)ccc2s1 (stereo partly drawn) [Compound 527, ((2-(((3S,6S,10aS)-3-(((R)-1-(cyclopropoxycarbonyl)pyrrolidin-3-yl)carbamoyl)-5-oxodecahydropyrrolo[1,2-a]azocin-6-yl)carbamoyl)benzo[b]thiophen-5-yl)fluoromethyl)phosphonic acid] | 
13 | 1000 to 10000 nM | 3000 to 30000 nM | O=C(N[C@H]1CCC[C@H]2CC[C@@H](C(=O)N3CC(c4cc(F)ccn4)C3)N2C1=O)c1cc2cc(CP(=O)(O)O)ccc2s1 [Compound 541, ((2-(((3S,6S,9aS)-3-(3-(4-fluoropyridin-2-yl)azetidine-1-carbonyl)-5-oxooctahydro-1H-pyrrolo[1,2-a]azepin-6-yl)carbamoyl)benzo[b]thiophen-5-yl)methyl)phosphonic acid] | 
14 | < 100 nM | 300 to 3000 nM | O=C(N[C@H]1CCC[C@H]2CC[C@@H](C(=O)N3CC(c4cnccc4N4CCC4)C3)N2C1=O)c1cc2cc([C@H](F)P(=O)(O)O)ccc2s1 (single isomer, unassigned) [Compound 742] | 
15 | 1000 to 10000 nM | ≤ 300 nM | COc1cccc([C@@H]2CN(C(=O)[C@@H]3CC[C@@H]4CCCC[C@H](NC(=O)c5cc6cc(C(F)P(=O)(O)O)ccc6s5)C(=O)N43)C3(CC3)[C@H]2C#N)c1 (relative stereo) [Compound 231, ((2-(((3S,6S,10aS)-3-((rel-trans)-7-cyano-6-(3-methoxyphenyl)-4-azaspiro[2.4]heptane-4-carbonyl)-5-oxodecahydropyrrolo[1,2-a]azocin-6-yl)carbamoyl)benzo[b]thiophen-5-yl)fluoromethyl)phosphonic acid] | 
16 |  |  | N#C[C@@H]1CN(C(=O)[C@@H]2CCC[C@@H]3CCC[C@H](NC(=O)c4cc5cc(C(F)(F)P(=O)(O)O)ccc5s4)C(=O)N32)C[C@H]1c1ccccc1 (single isomer, unassigned) [Compound 107, ((2-(((4S,7S,10aS)-4-((3S,4R or 3R,4S)-3-cyano-4-phenylpyrrolidine-1-carbonyl)-6-oxodecahydropyrido [1,2-a]azepin-7-yl)carbamoyl)benzo[b]thiophen-5-yl)difluoromethyl) phosphonic acid] | IC50 [1, 5]: 100 to 1000 nM; IC50 ([2]; STAT6 250 nM, probe 5-FAM-ApYKPFQDLI-NH2 2 nM, read-out: STAT6 (FP assay IC50)): ≤ 300 nM
17 | < 100 nM | 300 to 3000 nM | O=C(N[C@H]1CCC[C@H]2CC[C@@H](C(=O)N3CC(c4cnccc4F)C3)N2C1=O)c1cc2cc(C(F)(F)P(=O)(O)O)ccc2s1 [Compound 762, (difluoro(2-(((3S,6S,9aS)-3-(3-(4-fluoropyridin-3-yl)azetidine-1-carbonyl)-5-oxooctahydro-1H-pyrrolo[1,2-a]azepin-6-yl)carbamoyl)benzo [b]thiophen-5-yl)methyl) phosphonic acid] | 
